The values that follow come from ChEMBL document CHEMBL5154795, “Exploring the structure-activity relationships of diphenylurea as an antibacterial scaffold active against methicillin- and vancomycin-resistant Staphylococcus aureus” (Eur J Med Chem, 2022).

Values after ≈ are worked out from the molar mass of the structure shown.

Data set [1] has as its system Staphylococcus aureus. Kind of data set: Antibacterial activity against methicillin-resistant Staphylococcus aureus USA300 incubated for 18 to 20 hrs by broth microdilution method. It is filed as functional. As to conditions: time 18-20 hrs. For orientation: Dilution methods test growth across graded concentrations, often in twofold steps.
The test system of data set [2] is Staphylococcus aureus. Kind of data set: Induction of drug resistance in methicillin-resistant Staphylococcus aureus USA400 NRS 123 assessed as fold increase in MIC measured after 15 passages by broth microdilution assay. It is filed as functional.
Data set [3] has as its system Staphylococcus aureus. The data set can be described thus: Antibacterial activity against methicillin-resistant Staphylococcus aureus NRS 123 (USA400) incubated for 18 to 20 hrs by broth microdilution method. As to conditions: time 18-20 hrs. It is filed as functional.
The nature of data set [4]: Cytotoxicity against human HaCaT cells assessed as cell viability at 64 ug/ml incubated for 24 hrs by MTS assay relative to control. As to conditions: at 64 µg/mL, read-out: Activity. The data set is classed as toxicity, cell-based. On the technique in general: Formazan colour is commonly taken as a measure of viable cells.
For data set [5], the system named is Staphylococcus aureus. The data set can be described thus: Antibacterial activity against methicillin-resistant Staphylococcus aureus USA400 NRS 123 assessed as time of post-antibiotic effect at 5 times MIC incubated for 2 hrs followed by compound washout and measured every single 1 hr. It is filed as functional.
For data set [6], the system named is Staphylococcus aureus. The data set can be described thus: Antibacterial activity against methicillin-sensitive Staphylococcus aureus NRS 107 incubated for 18 to 20 hrs by broth microdilution method. It is filed as functional. As to conditions: time 18-20 hrs.
In data set [7] the test system is Staphylococcus aureus. The data set can be described thus: Antibacterial activity against Vancomycin-resistant Staphylococcus aureus 9 incubated for 18 to 20 hrs by broth microdilution method. It is filed as functional. As to conditions: time 18-20 hrs.
The test system of data set [8] is Staphylococcus aureus. Kind of data set: Antibacterial activity against methicillin-resistant Staphylococcus aureus NRS 386 (USA700) incubated for 18 to 20 hrs by broth microdilution method. The data set is classed as functional. The conditions noted are these: time 18-20 hrs.
For data set [9], the system named is Staphylococcus aureus. The data set can be described thus: Antibacterial activity against methicillin-resistant Staphylococcus aureus NRS 385 (USA500) incubated for 18 to 20 hrs by broth microdilution method. The conditions noted are these: time 18-20 hrs. The data set is classed as functional.
Data set [10] has as its system Staphylococcus aureus. Kind of data set: Antibacterial activity against methicillin-resistant Staphylococcus aureus NRS 119 incubated for 18 to 20 hrs by broth microdilution method. As to conditions: time 18-20 hrs. The data set is classed as functional.
In data set [11] the test system is Staphylococcus epidermidis. Kind of data set: Antibacterial activity against Staphylococcus epidermidis NRS 101 incubated for 18 to 20 hrs by broth microdilution method. It is filed as functional. As to conditions: time 18-20 hrs.
The subject of data set [12] is Staphylococcus aureus. The data set can be described thus: Antibacterial activity against methicillin-sensitive Staphylococcus aureus ATCC 6538 incubated for 18 to 20 hrs by broth microdilution method. The data set is classed as functional. As to conditions: time 18-20 hrs.
In data set [13] the test system is Staphylococcus aureus. Kind of data set: Antibacterial activity against Vancomycin-resistant Staphylococcus aureus 10 incubated for 18 to 20 hrs by broth microdilution method. It is filed as functional. The conditions noted are these: time 18-20 hrs.
In data set [14] the test system is Caco-2. The data set can be described thus: Cytotoxicity against human Caco-2 cells at 128 ug/ml incubated for 24 hrs by MTS assay. The data set is classed as toxicity, cell-based. The conditions noted are these: caco-2, 24 h, dose 128 µg/ml.
The test system of data set [15] is Caco-2. Kind of data set: Cytotoxicity against human Caco-2 cells assessed as reduction in cell viability at 64 ug/ml incubated for 24 hrs by MTS assay. It is filed as toxicity, cell-based. The conditions noted are these: caco-2, 24 h, dose 64 µg/ml.
For data set [16], the system named is Staphylococcus aureus. The data set can be described thus: Antibacterial activity against Vancomycin-resistant Staphylococcus aureus 12 incubated for 18 to 20 hrs by broth microdilution method. The data set is classed as functional. The conditions noted are these: time 18-20 hrs.
The test system of data set [17] is Staphylococcus aureus. Kind of data set: Antibacterial activity against methicillin-resistant Staphylococcus aureus NRS 384 (USA300) incubated for 18 to 20 hrs by broth microdilution method. It is filed as functional. The conditions noted are these: time 18-20 hrs.
Data set [18] relates to Staphylococcus aureus. Kind of data set: Induction of drug resistance in methicillin-resistant Staphylococcus aureus USA400 NRS 123 assessed as fold increase in MIC measured after 7 passages by broth microdilution assay. It is filed as functional.

For orientation: MIC means the smallest concentration in the dilution series that meets the test's criterion for growth inhibition. The low end stands for a more susceptible organism, the high end for a less susceptible organism. In the data set with Staphylococcus aureus [1], `C/C(=N\NC(=N)N)c1ccc(NC(=O)Nc2ccc(-c3cccn3C)cc2)cc1` showed an MIC of 4 µg/mL (≈ 10.3 µM).

The compound `C/C(=N\NC(=N)N)c1ccc(NC(=O)Nc2ccc(-c3cc4ccccc4s3)cc2)cc1` had an MIC against Staphylococcus aureus [1] of 4 µg/mL (≈ 9.04 µM).

Take `C/C(=N\NC(=N)N)c1ccc(NC(=O)Nc2ccc(-c3ccc(C)cc3)cc2)cc1`: 4 µg/mL (≈ 9.99 µM) was the least that counted as inhibitory in the data set with Staphylococcus aureus [1] (MIC).

Compound `C/C(=N\NC(=N)N)c1ccc(NC(=O)Nc2ccc(-c3ccccc3)cc2)cc1` displayed an MIC in the data set with Staphylococcus aureus [1] of 4 µg/mL (≈ 10.4 µM).

As for `C/C(=N\NC(=N)N)c1ccc(NC(=O)Nc2ccc(/C=C/c3ccccc3)cc2)cc1`, the fold change (FC) with Staphylococcus aureus [2] is 1. The MIC amounted to 4 µg/mL (≈ 9.7 µM) in the data set with Staphylococcus aureus [3]; 8 µg/mL (≈ 19.4 µM) in the data set on Staphylococcus aureus [6]; 16 µg/mL (≈ 38.8 µM) with Staphylococcus aureus [7]; 4 µg/mL (≈ 9.7 µM) in the data set with Staphylococcus aureus [8]; 8 µg/mL (≈ 19.4 µM) with Staphylococcus aureus [9]; 16 µg/mL (≈ 38.8 µM) in the data set with Staphylococcus aureus [10]. Further, the MIC was found to be 8 µg/mL (≈ 19.4 µM) in data set [11]; 16 µg/mL (≈ 38.8 µM) against Staphylococcus aureus [12]; 8 µg/mL (≈ 19.4 µM) against Staphylococcus aureus [13]; 8 µg/mL (≈ 19.4 µM) against Staphylococcus aureus [16]; 2 µg/mL (≈ 4.85 µM) in the data set with Staphylococcus aureus [17]. Moreover, the viability at 24 h, 64 ug/ml in [4] came to 100%. In the data set on Staphylococcus aureus [5], the Time is 3 h. Besides, the figures for the Activity entry with Caco-2 [14] and in the data set with Caco-2 [15] were “Toxic” and “Non-Toxic”, respectively.

Turning to `CO[C@H]1/C=C/O[C@@]2(C)Oc3c(C)c(O)c4c(O)c(c(/C=N/N5CCN(C)CC5)c(O)c4c3C2=O)NC(=O)/C(C)=C\C=C\[C@H](C)[C@H](O)[C@@H](C)[C@@H](O)[C@@H](C)[C@H](OC(C)=O)[C@@H]1C`, the values for the fold change (FC) in the data set with Staphylococcus aureus [2] and in the data set on Staphylococcus aureus [18] were > 500000 and 8, respectively.

With `C/C(=N\NC(=N)N)c1ccc(NC(=O)Nc2ccc(-c3ccc4ccccc4c3)cc2)cc1`, inhibition of growth against Staphylococcus aureus [1] (MIC) required 4 µg/mL (≈ 9.16 µM).

As for `C/C(=N\NC(=N)N)c1ccc(NC(=O)Nc2ccc(-c3ccoc3)cc2)cc1`, 4 µg/mL (≈ 10.6 µM) was the least that counted as inhibitory against Staphylococcus aureus [1] (MIC).

Compound `C/C(=N\NC(=N)N)c1ccc(NC(=O)Nc2ccc(-c3ccccc3C)cc2)cc1` registered an MIC in the data set on Staphylococcus aureus [1] of 4 µg/mL (≈ 9.99 µM).

Consider `CC(=O)NC[C@H]1CN(c2ccc(N3CCOCC3)c(F)c2)C(=O)O1` [LINEZOLID], for which the minimal inhibitory concentration (MIC) worked out at 1 µg/mL (≈ 2.96 µM) in the data set with Staphylococcus aureus [3]; 1 µg/mL (≈ 2.96 µM) against Staphylococcus aureus [6]; 1 µg/mL (≈ 2.96 µM) against Staphylococcus aureus [7]; 32 µg/mL (≈ 94.9 µM) with Staphylococcus aureus [10]; 1 µg/mL (≈ 2.96 µM) in data set [11]; 1 µg/mL (≈ 2.96 µM) against Staphylococcus aureus [12]. Further, the MIC in the data set with Staphylococcus aureus [13] and against Staphylococcus aureus [17] was 1 µg/mL (≈ 2.96 µM) each time.

With `C/C(=N\NC(=N)N)c1ccc(NC(=O)Nc2ccc(C3CC3)cc2)cc1`, the MIC with Staphylococcus aureus [1] is ≥ 64 µg/mL.
